Reference: ChEMBL document CHEMBL5352432, “Ad-hoc modifications of cyclic mimetics of SOCS1 protein: Structural and functional insights” (Eur J Med Chem, 2022)
pKd: −log10 of the molar value. The source made the active and inactive calls. No cut-off for these calls is given here. Positions of bridges follow the written chain, without caps; N, C: chain ends. Non-standard residues stand in square brackets, D forms with d. Residues, ends and D or L forms follow the SMILES beside them. *: point of attachment. 1Nal = N[C@@H](Cc1cccc2ccccc12)C(=O)O; hArg = N=C(N)NCCCC[C@H](N)C(=O)O; Cit = NC(=O)NCCC[C@H](N)C(=O)O; Orn = NCCC[C@H](N)C(=O)O; Ac5c = NC1(C(=O)O)CCCC1; Dap = NC[C@H](N)C(=O)O; Acm = CC(=O)NC*

Legend:
[1] = Stability of the compound in fetal bovine serum incubated for 42 hrs by RP-HPLC analysis; type: ADME, cell-free, Bos taurus; conditions: cattle
[2] = molecular target: Tyrosine-protein kinase JAK2 (Homo sapiens, UniProt O60674); test: Binding affinity to His-tagged JAK2 catalytic domain (826 to 1132 residues) (unknown origin) assessed as dissociation constant incubated for 30 mins by MST analysis
Chain of Tyrosine-protein kinase JAK2 (O60674 whole entry, the tested form may be a part): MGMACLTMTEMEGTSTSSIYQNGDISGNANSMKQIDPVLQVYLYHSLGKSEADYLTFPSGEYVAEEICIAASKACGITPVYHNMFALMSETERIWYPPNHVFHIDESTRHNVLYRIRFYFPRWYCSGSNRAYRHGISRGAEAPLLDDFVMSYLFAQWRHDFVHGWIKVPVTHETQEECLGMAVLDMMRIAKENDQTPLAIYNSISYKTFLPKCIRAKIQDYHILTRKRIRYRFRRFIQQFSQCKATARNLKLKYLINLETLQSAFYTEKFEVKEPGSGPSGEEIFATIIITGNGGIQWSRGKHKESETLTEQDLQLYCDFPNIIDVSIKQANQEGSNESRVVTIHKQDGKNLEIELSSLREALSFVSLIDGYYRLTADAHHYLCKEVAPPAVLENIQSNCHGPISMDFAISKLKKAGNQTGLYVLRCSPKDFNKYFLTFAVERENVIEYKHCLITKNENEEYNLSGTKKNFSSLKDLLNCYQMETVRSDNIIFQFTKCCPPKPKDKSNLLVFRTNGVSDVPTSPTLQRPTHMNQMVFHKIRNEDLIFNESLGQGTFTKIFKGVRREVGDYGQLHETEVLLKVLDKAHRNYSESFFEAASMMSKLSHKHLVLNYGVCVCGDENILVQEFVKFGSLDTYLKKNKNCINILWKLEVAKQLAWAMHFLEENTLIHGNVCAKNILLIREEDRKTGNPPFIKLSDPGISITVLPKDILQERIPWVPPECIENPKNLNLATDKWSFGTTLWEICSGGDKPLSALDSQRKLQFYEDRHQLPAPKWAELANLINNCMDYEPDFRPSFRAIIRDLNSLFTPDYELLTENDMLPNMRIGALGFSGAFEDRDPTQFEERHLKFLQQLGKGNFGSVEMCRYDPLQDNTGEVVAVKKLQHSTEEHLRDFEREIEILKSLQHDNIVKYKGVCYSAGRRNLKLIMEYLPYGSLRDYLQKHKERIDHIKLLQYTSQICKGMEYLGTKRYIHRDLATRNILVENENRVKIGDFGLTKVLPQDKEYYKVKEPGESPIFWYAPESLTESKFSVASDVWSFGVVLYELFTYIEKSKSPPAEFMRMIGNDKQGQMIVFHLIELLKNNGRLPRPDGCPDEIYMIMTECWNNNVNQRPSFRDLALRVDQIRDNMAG

[3] = Stability of the compound in fetal bovine serum assessed as drug degradation incubated for 17 hrs by RP-HPLC analysis; type: ADME, cell-free, Bos taurus; conditions: cattle, read-out: Drug degradation
[4] = Stability of the compound in fetal bovine serum assessed as drug degradation incubated for 42 hrs by RP-HPLC analysis; type: ADME, cell-free, Bos taurus; conditions: cattle, read-out: Drug degradation
[5] = Proteolytic stability of the compound in fetal bovine serum assessed as drug degradation incubated for 42 hrs by RP-HPLC analysis; type: ADME, cell-free, Bos taurus; conditions: cattle
[6] = Proteolytic stability of the compound in fetal bovine serum assessed as drug degradation incubated for 17 hrs by RP-HPLC analysis; type: ADME, cell-free, Bos taurus; conditions: cattle, read-out: Drug degradation

Row | Structure (SMILES) | Stability [1] | pKd [2] | also measured
1 | CC(=O)NCSC[C@@H]1NC(=O)[C@H]([C@@H](C)O)NC(=O)[C@@H](NC(C)=O)CCC(=O)NC[C@@H](C(=O)N[C@@H](Cc2c[nH]cn2)C(=O)O)NC(=O)[C@H](CCCNC(=N)N)NC(=O)[C@H](Cc2cccc3ccccc23)NC(=O)[C@H]([C@@H](C)O)NC(=O)[C@H](CCC(N)=O)NC(=O)[C@H](CCCNC(=N)N)NC1=O (Ac-ETC(Acm)RQT[1Nal]R[Dap]H-OH; lactam 1-9) | Stable | 4.15 | 
2 | CC(=O)NCSC[C@@H]1NC(=O)[C@H]([C@@H](C)O)NC(=O)[C@@H](NC(C)=O)CC(=O)NCCCC[C@@H](C(=O)N[C@@H](Cc2c[nH]cn2)C(=O)O)NC(=O)[C@H](CCCNC(=N)N)NC(=O)[C@H](Cc2cccc3ccccc23)NC(=O)[C@H]([C@@H](C)O)NC(=O)[C@H](CCCN)NC(=O)[C@H](CCCNC(=N)N)NC1=O (Ac-DTC(Acm)R[Orn]T[1Nal]RKH-OH; lactam 1-9) |  | 4.49 | metabolised at 17 h [3]: 30%; metabolised at 42 h [4]: 100%
3 | CC(=O)NCSC[C@@H]1NC(=O)[C@H]([C@@H](C)O)NC(=O)[C@@H](NC(C)=O)CC(=O)NCCCC[C@@H](C(=O)N[C@@H](Cc2c[nH]cn2)C(=O)O)NC(=O)[C@H](CCCCNC(=N)N)NC(=O)[C@H](Cc2cccc3ccccc23)NC(=O)[C@H]([C@@H](C)O)NC(=O)[C@H](CCCN)NC(=O)[C@H](CCCNC(=N)N)NC1=O (Ac-DTC(Acm)R[Orn]T[1Nal][hArg]KH-OH; lactam 1-9) | Stable | 4.41 | 
4 | CC(=O)NCSC[C@@H]1NC(=O)[C@H]([C@@H](C)O)NC(=O)[C@@H](NC(C)=O)CC(=O)NCCCC[C@@H](C(=O)N[C@@H](Cc2c[nH]cn2)C(=O)O)NC(=O)[C@H](CCCNC(=N)N)NC(=O)[C@H](Cc2cccc3ccccc23)NC(=O)[C@H]([C@@H](C)O)NC(=O)[C@H](CCCNC(N)=O)NC(=O)[C@H](CCCNC(=N)N)NC1=O (Ac-DTC(Acm)R[Cit]T[1Nal]RKH-OH; lactam 1-9) |  | 4.44 | metabolised at 17 h [3]: 50%
5 | CC(=O)NCSC[C@@H]1NC(=O)[C@H]([C@@H](C)O)NC(=O)[C@@H](NC(C)=O)CC(=O)NCCCC[C@@H](C(=O)N[C@@H](Cc2c[nH]cn2)C(=O)O)NC(=O)[C@H](CCCCNC(=N)N)NC(=O)[C@H](Cc2cccc3ccccc23)NC(=O)[C@H]([C@@H](C)O)NC(=O)[C@H](CCCNC(N)=O)NC(=O)[C@H](CCCNC(=N)N)NC1=O (Ac-DTC(Acm)R[Cit]T[1Nal][hArg]KH-OH; lactam 1-9) | Stable | 4.51 | 
6 | CC(=O)NCSC[C@@H]1NC(=O)[C@H]([C@@H](C)O)NC(=O)[C@@H](NC(C)=O)CCC(=O)NCCCC[C@@H](C(=O)N[C@@H](Cc2c[nH]cn2)C(=O)O)NC(=O)[C@H](CCCNC(=N)N)NC(=O)[C@H](Cc2cccc3ccccc23)NC(=O)[C@H]([C@@H](C)O)NC(=O)[C@H](CCC(N)=O)NC(=O)[C@H](CCCNC(=N)N)NC1=O (Ac-ETC(Acm)RQT[1Nal]RKH-OH; lactam 1-9) | Stable | 4.28 | 
7 | CC(=O)NCSC[C@@H]1NC(=O)[C@H]([C@@H](C)O)NC(=O)[C@@H](NC(C)=O)CC(=O)NC[C@@H](C(=O)N[C@@H](Cc2c[nH]cn2)C(=O)O)NC(=O)[C@H](CCCNC(=N)N)NC(=O)[C@H](Cc2cccc3ccccc23)NC(=O)[C@H]([C@@H](C)O)NC(=O)[C@H](CCC(N)=O)NC(=O)[C@H](CCCNC(=N)N)NC1=O (Ac-DTC(Acm)RQT[1Nal]R[Dap]H-OH; lactam 1-9) | Unstable |  | Activity [2]: inactive
8 | CC(=O)NCSC[C@@H]1NC(=O)[C@H]([C@@H](C)O)NC(=O)[C@@H](NC(C)=O)CC(=O)NCCCC[C@@H](C(=O)N[C@@H](Cc2c[nH]cn2)C(=O)O)NC(=O)[C@H](CCCNC(=N)N)NC(=O)[C@H](Cc2cccc3ccccc23)NC(=O)C2(CCCC2)NC(=O)[C@H](CCC(N)=O)NC(=O)[C@H](CCCNC(=N)N)NC1=O (Ac-DTC(Acm)RQ[Ac5c][1Nal]RKH-OH; lactam 1-9) |  | 3.92 | Stability [5]: Stable
9 | CC(=O)NCSC[C@@H]1NC(=O)[C@H]([C@@H](C)O)NC(=O)[C@@H](NC(C)=O)CC(=O)NCCCC[C@@H](C(=O)N[C@@H](Cc2c[nH]cn2)C(=O)O)NC(=O)[C@H](CCCNC(=N)N)NC(=O)[C@H](Cc2cccc3ccccc23)NC(=O)[C@H]([C@@H](C)O)NC(=O)[C@H](CCC(N)=O)NC(=O)[C@H](CCCNC(=N)N)NC1=O (Ac-DTC(Acm)RQT[1Nal]RKH-OH; lactam 1-9) |  | 4.44 | metabolised at 17 h [3]: 30%
10 | CC(=O)NCSC[C@@H]1NC(=O)C2(CCCC2)NC(=O)[C@@H](NC(C)=O)CC(=O)NCCCC[C@@H](C(=O)N[C@@H](Cc2c[nH]cn2)C(=O)O)NC(=O)[C@H](CCCNC(=N)N)NC(=O)[C@H](Cc2cccc3ccccc23)NC(=O)[C@H]([C@@H](C)O)NC(=O)[C@H](CCC(N)=O)NC(=O)[C@H](CCCNC(=N)N)NC1=O (Ac-D[Ac5c]C(Acm)RQT[1Nal]RKH-OH; lactam 1-9) |  | 3.59 | Stability [5]: Stable
11 | CC(=O)NCSC[C@@H]1NC(=O)[C@H]([C@@H](C)O)NC(=O)[C@@H](NC(C)=O)CCC(=O)NCCC[C@@H](C(=O)N[C@@H](Cc2c[nH]cn2)C(=O)O)NC(=O)[C@H](CCCNC(=N)N)NC(=O)[C@H](Cc2cccc3ccccc23)NC(=O)[C@H]([C@@H](C)O)NC(=O)[C@H](CCC(N)=O)NC(=O)[C@H](CCCNC(=N)N)NC1=O (Ac-ETC(Acm)RQT[1Nal]R[Orn]H-OH; lactam 1-9) | Unstable |  | Activity [2]: inactive
12 | CC(=O)NCSC[C@@H]1NC(=O)[C@H]([C@@H](C)O)NC(=O)[C@@H](NC(C)=O)CCCCNC(=O)C[C@@H](C(=O)N[C@@H](Cc2c[nH]cn2)C(=O)O)NC(=O)[C@H](CCCNC(=N)N)NC(=O)[C@H](Cc2cccc3ccccc23)NC(=O)[C@H]([C@@H](C)O)NC(=O)[C@H](CCC(N)=O)NC(=O)[C@H](CCCNC(=N)N)NC1=O (Ac-KTC(Acm)RQT[1Nal]RDH-OH; lactam 1-9) |  | 3.80 | metabolised at 17 h [6]: 100%
